Legend:
BrSK1(h) = BrSK1(h) (Homo sapiens, UniProt Q8TDC3); assay: Protein kinase inhibition assay; format: biochemical; conditions: read-out: percent residual activity of BrSK1(h)
Procedure: (§1) Certain compounds were tested for activity in protein kinase inhibition assays. All substrates were dissolved and diluted to working stocks in de-ionized water, apart from histone H1 (10× working stock in 20 mM MOPS pH 7.0), PDKtide (10× working stock in 50 mM Tris pH 7.0) ATF2 (which is typically stored at a 20× working stock in 50 mM Tris pH 7.5, 150 mM NaCl, 0.1 mM EGTA, 0.03% Brij-35, 50% glycerol, 1 mM benzamidine, 0.2 mM PMSF and 0.1% R-mercaptoethanol), KKLNRTLSFAEPG (SEQ ID NO:203) and RRRLSFAEPG (SEQ ID NO:204) (50 mM HEPES pH 7.4) and GGEEEEYFELVKKKK (SEQ ID NO:205) (20 mM MOPS pH 7.0). All kinases were pre-diluted to a 10× working concentration prior to addition into the assay. The composition of the dilution buffer for each kinase is detailed below.

CK2α2(h) = CK2α2(h) (Homo sapiens, UniProt P19784); assay: Protein kinase inhibition assay; format: biochemical; conditions: read-out: percent residual activity of CK2α2(h)
Sequence of CK2α2(h) (P19784 whole entry): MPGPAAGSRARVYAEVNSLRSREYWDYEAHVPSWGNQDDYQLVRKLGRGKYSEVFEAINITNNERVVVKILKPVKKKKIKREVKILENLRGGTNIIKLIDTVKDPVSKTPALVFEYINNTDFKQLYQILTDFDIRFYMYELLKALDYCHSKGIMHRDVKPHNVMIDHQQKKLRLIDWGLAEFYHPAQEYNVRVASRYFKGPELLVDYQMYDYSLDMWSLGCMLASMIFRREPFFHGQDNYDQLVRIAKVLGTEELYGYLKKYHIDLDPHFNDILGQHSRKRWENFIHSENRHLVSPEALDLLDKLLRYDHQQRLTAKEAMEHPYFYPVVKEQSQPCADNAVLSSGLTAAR
Procedure: as §1

CaMKIIβ(h) = CaMKIIβ(h) (Homo sapiens, UniProt Q13554); assay: Protein kinase inhibition assay; format: biochemical; conditions: read-out: percent residual activity of CaMKIIβ(h)
Procedure: as §1

DCAMKL2(h) = DCAMKL2(h) (Homo sapiens, UniProt Q8N568); assay: Protein kinase inhibition assay; format: biochemical; conditions: read-out: percent residual activity of DCAMKL2(h)
Procedure: as §1

DRAK1(h) = biological target: T1, DRAK1(h) (Homo sapiens, UniProt Q9UEE5); assay: Protein kinase inhibition assay; format: biochemical; conditions: for remaining activity at 2.5 µM: read-out: percent residual activity of DRAK1(h)
T1 sequence (Q9UEE5 1-414): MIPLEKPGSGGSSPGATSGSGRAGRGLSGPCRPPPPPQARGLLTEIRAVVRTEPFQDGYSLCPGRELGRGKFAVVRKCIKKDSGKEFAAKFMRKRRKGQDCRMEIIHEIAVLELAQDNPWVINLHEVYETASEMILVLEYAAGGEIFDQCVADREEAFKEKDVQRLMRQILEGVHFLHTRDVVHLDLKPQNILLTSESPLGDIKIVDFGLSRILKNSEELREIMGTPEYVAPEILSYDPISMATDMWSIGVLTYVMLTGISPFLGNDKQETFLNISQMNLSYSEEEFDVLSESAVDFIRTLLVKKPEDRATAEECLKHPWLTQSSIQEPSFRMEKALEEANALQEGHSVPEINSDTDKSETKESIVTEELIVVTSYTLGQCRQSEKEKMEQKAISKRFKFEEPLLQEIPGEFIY
Procedure: as §1

EGFR(T790M)(h) = EGFR(T790M)(h) (Homo sapiens, UniProt P00533, T790M); assay: Protein kinase inhibition assay; format: biochemical; conditions: read-out: percent residual activity of EGFR(T790M)(h)
Sequence of EGFR(T790M)(h) (P00533 25-1210 T790M): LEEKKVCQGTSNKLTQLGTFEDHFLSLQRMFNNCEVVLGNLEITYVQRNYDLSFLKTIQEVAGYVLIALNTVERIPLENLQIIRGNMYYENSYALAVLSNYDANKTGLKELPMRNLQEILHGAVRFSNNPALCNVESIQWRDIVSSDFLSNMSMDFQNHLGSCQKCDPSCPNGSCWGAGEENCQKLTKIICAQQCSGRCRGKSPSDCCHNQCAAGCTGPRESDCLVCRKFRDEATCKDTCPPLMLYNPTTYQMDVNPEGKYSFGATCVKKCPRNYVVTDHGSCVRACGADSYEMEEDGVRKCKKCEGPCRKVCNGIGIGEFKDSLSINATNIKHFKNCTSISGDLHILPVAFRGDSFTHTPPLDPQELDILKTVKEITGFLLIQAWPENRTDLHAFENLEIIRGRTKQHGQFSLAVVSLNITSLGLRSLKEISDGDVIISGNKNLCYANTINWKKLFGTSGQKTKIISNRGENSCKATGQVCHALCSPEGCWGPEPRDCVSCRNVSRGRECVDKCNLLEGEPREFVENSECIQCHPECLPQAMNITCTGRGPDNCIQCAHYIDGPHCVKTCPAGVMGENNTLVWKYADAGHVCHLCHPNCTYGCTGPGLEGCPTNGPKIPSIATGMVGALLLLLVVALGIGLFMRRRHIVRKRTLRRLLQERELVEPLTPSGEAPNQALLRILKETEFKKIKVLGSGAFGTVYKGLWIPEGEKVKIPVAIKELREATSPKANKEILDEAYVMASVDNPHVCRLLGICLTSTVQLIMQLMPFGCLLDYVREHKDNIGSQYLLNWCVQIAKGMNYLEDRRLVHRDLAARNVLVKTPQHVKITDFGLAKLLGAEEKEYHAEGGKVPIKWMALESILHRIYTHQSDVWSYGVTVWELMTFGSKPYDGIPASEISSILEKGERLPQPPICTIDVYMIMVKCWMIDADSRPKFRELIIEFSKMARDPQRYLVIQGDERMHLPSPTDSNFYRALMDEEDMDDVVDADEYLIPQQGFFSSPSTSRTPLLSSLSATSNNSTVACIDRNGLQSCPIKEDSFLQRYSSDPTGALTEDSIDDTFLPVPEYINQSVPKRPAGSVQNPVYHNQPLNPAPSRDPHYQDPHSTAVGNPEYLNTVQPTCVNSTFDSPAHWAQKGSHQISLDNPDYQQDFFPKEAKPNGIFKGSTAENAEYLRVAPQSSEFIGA
Procedure: as §1

Flt4(h) = Flt4(h) (Homo sapiens, UniProt P35916); assay: Protein kinase inhibition assay; format: biochemical; conditions: read-out: percent residual activity of Flt4(h)
Sequence of Flt4(h) (P35916 25-1363): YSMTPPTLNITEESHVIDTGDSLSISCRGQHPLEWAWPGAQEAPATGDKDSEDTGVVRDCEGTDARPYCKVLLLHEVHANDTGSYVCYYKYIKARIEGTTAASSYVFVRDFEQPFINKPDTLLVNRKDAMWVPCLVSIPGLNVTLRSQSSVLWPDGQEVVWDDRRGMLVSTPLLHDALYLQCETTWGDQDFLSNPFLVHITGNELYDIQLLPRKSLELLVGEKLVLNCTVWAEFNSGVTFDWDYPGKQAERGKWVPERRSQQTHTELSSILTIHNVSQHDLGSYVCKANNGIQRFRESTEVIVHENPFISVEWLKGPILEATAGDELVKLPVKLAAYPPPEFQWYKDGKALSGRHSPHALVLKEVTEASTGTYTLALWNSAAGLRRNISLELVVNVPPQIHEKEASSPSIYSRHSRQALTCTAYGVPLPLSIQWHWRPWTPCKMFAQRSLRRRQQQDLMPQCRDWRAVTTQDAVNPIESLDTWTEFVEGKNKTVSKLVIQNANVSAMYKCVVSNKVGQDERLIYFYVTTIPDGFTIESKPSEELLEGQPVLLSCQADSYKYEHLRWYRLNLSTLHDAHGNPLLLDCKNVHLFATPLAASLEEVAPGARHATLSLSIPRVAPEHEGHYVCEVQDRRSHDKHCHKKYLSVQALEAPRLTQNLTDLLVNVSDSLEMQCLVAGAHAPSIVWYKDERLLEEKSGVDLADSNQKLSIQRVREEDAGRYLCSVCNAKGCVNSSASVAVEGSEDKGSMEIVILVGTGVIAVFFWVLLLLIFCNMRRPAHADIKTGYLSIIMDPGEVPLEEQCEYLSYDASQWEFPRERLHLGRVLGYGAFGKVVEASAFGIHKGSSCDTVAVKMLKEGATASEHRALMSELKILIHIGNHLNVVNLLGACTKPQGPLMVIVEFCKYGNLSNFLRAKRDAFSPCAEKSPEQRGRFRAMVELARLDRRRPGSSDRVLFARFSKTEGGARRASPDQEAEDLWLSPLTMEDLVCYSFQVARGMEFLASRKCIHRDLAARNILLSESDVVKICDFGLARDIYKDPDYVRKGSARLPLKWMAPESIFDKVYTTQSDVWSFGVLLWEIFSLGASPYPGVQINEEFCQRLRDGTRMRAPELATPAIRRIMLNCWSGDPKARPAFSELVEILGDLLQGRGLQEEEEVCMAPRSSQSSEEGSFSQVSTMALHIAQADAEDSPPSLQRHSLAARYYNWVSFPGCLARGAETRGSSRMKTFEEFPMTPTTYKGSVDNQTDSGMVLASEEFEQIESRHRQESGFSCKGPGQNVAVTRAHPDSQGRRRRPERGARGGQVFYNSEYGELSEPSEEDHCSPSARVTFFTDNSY
Procedure: as §1

MARK1(h) = MARK1(h) (Homo sapiens, UniProt Q9P0L2); assay: Protein kinase inhibition assay; format: biochemical; conditions: read-out: percent residual activity of MARK1(h)
Procedure: as §1

MELK(h) = MELK(h) (Homo sapiens, UniProt Q14680); assay: Protein kinase inhibition assay; format: biochemical; conditions: read-out: percent residual activity of MELK(h)
Procedure: as §1

MRCKα(h) = MRCKα(h) (Homo sapiens, UniProt Q5VT25); assay: Protein kinase inhibition assay; format: biochemical; conditions: read-out: percent residual activity of MRCKα(h)
Sequence of MRCKα(h) (Q5VT25 whole entry): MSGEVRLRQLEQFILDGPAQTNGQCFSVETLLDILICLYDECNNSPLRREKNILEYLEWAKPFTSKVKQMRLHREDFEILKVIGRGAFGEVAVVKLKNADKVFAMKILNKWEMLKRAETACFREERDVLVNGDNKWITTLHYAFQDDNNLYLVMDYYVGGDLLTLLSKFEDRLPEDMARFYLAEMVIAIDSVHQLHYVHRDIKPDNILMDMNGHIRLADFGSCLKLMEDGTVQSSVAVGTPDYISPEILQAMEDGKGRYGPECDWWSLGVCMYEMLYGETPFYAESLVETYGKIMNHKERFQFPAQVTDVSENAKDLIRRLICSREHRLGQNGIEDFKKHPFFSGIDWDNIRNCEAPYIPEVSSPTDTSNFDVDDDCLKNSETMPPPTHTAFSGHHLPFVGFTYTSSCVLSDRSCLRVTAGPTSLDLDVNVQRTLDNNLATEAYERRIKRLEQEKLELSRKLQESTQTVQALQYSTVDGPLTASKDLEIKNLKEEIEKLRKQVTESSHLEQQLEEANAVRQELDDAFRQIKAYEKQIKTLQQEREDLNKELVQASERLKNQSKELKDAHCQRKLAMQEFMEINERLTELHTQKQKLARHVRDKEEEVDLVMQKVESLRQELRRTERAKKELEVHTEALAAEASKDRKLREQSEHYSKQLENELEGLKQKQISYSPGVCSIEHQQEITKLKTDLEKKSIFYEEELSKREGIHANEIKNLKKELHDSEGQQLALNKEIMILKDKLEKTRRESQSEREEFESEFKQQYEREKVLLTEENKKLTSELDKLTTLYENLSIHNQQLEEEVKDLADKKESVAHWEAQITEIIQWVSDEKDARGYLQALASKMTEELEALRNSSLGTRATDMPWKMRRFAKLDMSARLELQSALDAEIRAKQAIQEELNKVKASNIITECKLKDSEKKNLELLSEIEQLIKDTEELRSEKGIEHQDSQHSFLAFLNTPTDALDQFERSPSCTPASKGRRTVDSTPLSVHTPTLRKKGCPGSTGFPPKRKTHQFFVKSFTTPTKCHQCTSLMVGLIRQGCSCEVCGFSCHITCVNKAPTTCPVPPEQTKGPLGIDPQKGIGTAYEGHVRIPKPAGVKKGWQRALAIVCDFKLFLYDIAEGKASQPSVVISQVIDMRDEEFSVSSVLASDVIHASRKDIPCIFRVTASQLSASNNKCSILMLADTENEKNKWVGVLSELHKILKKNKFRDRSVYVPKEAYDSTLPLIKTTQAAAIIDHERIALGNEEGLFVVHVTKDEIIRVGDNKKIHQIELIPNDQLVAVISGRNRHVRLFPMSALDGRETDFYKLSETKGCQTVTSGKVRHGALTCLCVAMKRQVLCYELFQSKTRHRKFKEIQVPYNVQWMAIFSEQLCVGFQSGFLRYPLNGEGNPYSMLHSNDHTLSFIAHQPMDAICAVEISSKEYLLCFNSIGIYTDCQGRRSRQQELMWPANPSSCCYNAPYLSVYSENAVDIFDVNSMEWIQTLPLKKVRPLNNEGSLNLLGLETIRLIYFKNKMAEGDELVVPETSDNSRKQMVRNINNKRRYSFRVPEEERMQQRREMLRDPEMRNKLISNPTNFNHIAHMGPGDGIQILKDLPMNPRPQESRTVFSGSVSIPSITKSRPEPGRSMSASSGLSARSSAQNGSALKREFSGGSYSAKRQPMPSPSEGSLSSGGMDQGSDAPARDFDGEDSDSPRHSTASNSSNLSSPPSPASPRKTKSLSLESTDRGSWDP
Procedure: as §1

MST3(h) = MST3(h) (Homo sapiens, UniProt Q9Y6E0); assay: Protein kinase inhibition assay; format: biochemical; conditions: read-out: percent residual activity of MST3(h)
Procedure: as §1

NEK3(h) = NEK3(h) (Homo sapiens, UniProt P51956); assay: Protein kinase inhibition assay; format: biochemical; conditions: read-out: percent residual activity of NEK3(h)
Procedure: as §1

SIK(h) = SIK(h) (Homo sapiens, UniProt P57059); assay: Protein kinase inhibition assay; format: biochemical; conditions: read-out: percent residual activity of SIK(h)
Procedure: as §1

SGK3(h) = SGK3(h) (Homo sapiens, UniProt Q96BR1); assay: Protein kinase inhibition assay; format: biochemical; conditions: read-out: percent residual activity of SGK3(h)
Sequence of SGK3(h) (Q96BR1 whole entry): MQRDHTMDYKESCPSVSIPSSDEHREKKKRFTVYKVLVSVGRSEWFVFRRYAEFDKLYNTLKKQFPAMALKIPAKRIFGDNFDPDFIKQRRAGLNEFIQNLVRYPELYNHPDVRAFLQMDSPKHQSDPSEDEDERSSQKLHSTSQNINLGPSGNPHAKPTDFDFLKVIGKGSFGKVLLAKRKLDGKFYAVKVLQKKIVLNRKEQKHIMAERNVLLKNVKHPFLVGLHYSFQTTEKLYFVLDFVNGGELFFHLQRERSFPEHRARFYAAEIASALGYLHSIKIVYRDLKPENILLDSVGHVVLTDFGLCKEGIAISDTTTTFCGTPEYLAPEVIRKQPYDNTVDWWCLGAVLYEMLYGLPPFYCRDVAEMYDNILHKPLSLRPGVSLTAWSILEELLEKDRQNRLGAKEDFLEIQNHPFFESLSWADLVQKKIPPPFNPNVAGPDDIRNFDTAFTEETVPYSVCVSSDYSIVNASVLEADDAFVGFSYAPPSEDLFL
Procedure: as §1
In a final reaction volume of 25 μl, SGK3 (h) (5-10 mU) is incubated with 8 mM MOPS pH 7.0, 0.2 mM EDTA, 250 μM GRPRTSSFAEGKK (SEQ ID NO:226), 10 mM MgAcetate and [gamma-33P-ATP] (specific activity approx. 500 cpm/pmol, concentration as required). The reaction is initiated by the addition of the MgATP mix. After incubation for 40 minutes at room temperature, the reaction is stopped by the addition of 5 μl of a 3% phosphoric acid solution. 10 μl of the reaction is then spotted onto a P30 filtermat and washed three times for 5 minutes in 75 mM phosphoric acid and once in methanol prior to drying and scintillation counting.

cells = assay: Apoptosis by Annexin V binding (FACS); format: cell-based
Procedure: Apoptosis was assessed by Annexin V binding in flow cytometry fluorescence activated cell sorting (FACS) assays. In such assays, cells were harvested and washed twice in PBS (4° C.) and resuspended at a concentration of 1×10^6 cells/ml in Binding Buffer (10× solution contains 0.1M HEPES/NaOH, pH7.4; […]; 25 mM CaCl2; PharMingen, 66121A). Cells were aliquotted (100 ul) into FACS tubes with Annexin V and/or viability dye. The tube contents were mixed gently and incubated for 15 minutes at room temperature in the dark. Binding Buffer (400 ul) was added to each tube and analyzed immediately by flow cytometry.
Annexin V is available in biotin, FITC (Annexin-V-FITC; PharMingen, 65874X) and PE (Annexin-PE; PharMingen, 65875X) formats. When using Annexin-V-FITC, Propidium Iodide (PI; Sigma, P 4170) was used as the viability marker (5 ul of a 50 ug/ml stock solution). When using Annexin-V-PE, 7-AminoActinomycin D (7-AAD; Sigma, A 9400) was the preferred viability marker (1 ug/ml final concentration) as there is less spectral overlap of PE and 7-AAD than PE and PI. While 7-AAD is not as bright as PI, FITC, PE and PI can be combined effectively. Tubes contained (i) cells alone, (ii) cells+Annexin, (iii) cells+PI (or 7-AAD) or (iv) cells+Annexin+PI (or 7-AAD) in some assays.

Compound | remaining activity at 2.5 µM (BrSK1(h)) | remaining activity at 2.5 µM (CK2α2(h)) | remaining activity at 2.5 µM (CaMKIIβ(h)) | remaining activity at 2.5 µM (DCAMKL2(h)) | inhibition at 2.5 µM (DRAK1(h)) | remaining activity at 2.5 µM (DRAK1(h)) | remaining activity at 2.5 µM (EGFR(T790M)(h)) | remaining activity at 2.5 µM (Flt4(h)) | remaining activity at 2.5 µM (MARK1(h)) | remaining activity at 2.5 µM (MELK(h)) | remaining activity at 2.5 µM (MRCKα(h)) | remaining activity at 2.5 µM (MST3(h)) | remaining activity at 2.5 µM (NEK3(h)) | remaining activity at 2.5 µM (SIK(h)) | remaining activity at 2.5 µM (SGK3(h)) | induction of apoptosis (cells)
CN1CCCC1CCNC(=O)c1cn2c3c(c(N4CCC(c5cnccn5)C4)c(F)cc3c1=O)Oc1cc3ccccc3cc1-2 (stereo not shown) [Compound A-1] | 99% | 115% | 101% | 48% | > 80% | 11% | 91% | 70% | 83% | 40% | 85% | 45% | 94% | 79% | 44% | induced apoptosis
CC(=O)N1CCN(c2ccc3c(=O)c(C(=O)NCCN4CCCC4)c4n(C)c5ccccc5n4c3n2)CC1 [Compound B-1] | 107% | 116% | 100% | 111% | – | 117% | 114% | 103% | 95% | 94% | 98% | 110% | 118% | 94% | 128% | induced apoptosis following an efficient arrest of cell cycle progression

Reference: patent US20070117770A1, “Human ribosomal DNA (rDNA) and ribosomal RNA (rRNA) nucleic acids and uses thereof” (Cylene Pharmaceuticals, Inc., priority 2005, published 2007)
